# Test results published in US6365574B2, “Ethanolate of azithromycin, process for manufacture, and pharmaceutical compositions thereof” (Teva Pharmaceutical Industries Ltd., priority 1998, dated 2002).
# “Also recorded” adds a separate entry of the source. Read-outs that look alike come from different tables or passages of the source.
# Assays:
# [1] = cited from earlier work
# [2] = Hygroscopicity profile: controlled humidity chambers for two weeks, then Karl Fisher analysis of water content; type: physicochemical; conditions: compared with azithromycin monohydrate over a range of relative humidity (FIG. 1); monohydrate data from EP 298,650
# Source text: Hygroscopicity profiles were obtained by maintaining samples in controlled humidity chambers for a period of two weeks, followed by Karl Fisher analysis of water content.
substance,measurement,setting,value
9-deoxo-9a-aza-9a-methyl-9a-homoerythromycin A,hygroscopicity,"[1]; according to CN 1,093,370","less hygroscopic than the dehydrate described in EP 298,650"
9-deoxo-9a-aza-9a-methyl-9a-homoerythromycin A [ethanolate of azithromycin],hygroscopicity,[2],less hygroscopic than azithromycin monohydrate; also recorded: less hygroscopic than the prior art monohydrate
9-deoxo-9a-aza-9a-methyl-9a-homoerythromycin A [dehydrate form of azithromycin],hygroscopicity,"[1]; according to EP 298,650",less hygroscopic than the previously known monohydrate
9-deoxo-9a-aza-9a-methyl-9a-homoerythromycin A [monohydrate],hygroscopicity,"[1]; according to EP 298,650",hygroscopic
